The data set can be described thus: Human HepG2 cell viability assay in 384 well format. Format: toxicity, cell-based. The settings on record: HepG2 cells, read-out: Inhibition. On the set-up: dose 125 nL, time 70.5 hour; cytotoxicity at 70.5 h: concentration not given beside the values.
On to `O=C(NCCc1nnc2n1CCC2)NCC1(c2ccc(F)cc2)CC1`, for which the cytotoxicity at 70.5 h was -7.03%.
The result for `Cn1cc(CC2CCN(C(=O)NCCCc3ccc(O)cc3)C2)cn1` (centres undefined) reads -9.85%; that for `CCCc1noc(CCC(=O)N2CCCC2Cn2cc(C)cn2)n1` (centres undefined), -10.8%.
With `CCC(=O)NCC(c1ccc(SC)cc1)N1CCc2sccc2C1` (centres undefined) the figure was -8.32%; with `COC(=O)c1ccoc1CN(C)Cc1ccccc1`, -0.994%; with `COCCOCC(=O)Nc1ccc(C)cc1Br`, -3.99%.
The result for `COc1ccccc1CC(C)(C)NC(=O)CNS(C)(=O)=O` reads -2.04%; that for `O=C(CN1CCCS(=O)(=O)CC1)NCc1ccccc1F`, -8.4%; that for `O=C(CC1CCCO1)NCc1ccc(Br)cc1F` (centres undefined), -5.9%.
Consider `CCOCCCC(=O)NC1CCN(C(C)c2ccccc2)CC1` (centres undefined), for which the cytotoxicity at 70.5 h is -5.8%.
With `N#CCCN(Cc1cccnc1)C(=O)Cc1ccc(-n2cnnn2)cc1` the figure was -10.6%; with `COc1ccc(-n2ccc(CNCc3cccc(OC)c3)n2)cc1`, 23.7%; with `Cc1cccc(OCCNC(=O)C(C)S(=O)(=O)C2CCCC2)c1` (centres undefined), -9.37%.
With `CCC(NC(=O)NCc1ccoc1C)c1c(C)nn(C)c1C` (centres undefined) the figure was -5.65%.
For the compound `Cc1nn(C)c(C)c1CC(C)NC(=O)NCc1ccn(C(C)C)n1` (centres undefined), the cytotoxicity at 70.5 h was -5.76%.
With `CC(C)CNC(=O)c1ccc(NC(=O)NC(C)(C)CO)cc1Cl` the figure was -2.58%; with `CCC1(c2ccc(NS(=O)(=O)c3cccs3)cc2)CCC(=O)NC1=O` (centres undefined), -1.8%.
The result for `CC(C)CN1C(=O)C2(CCCC2)NC1c1cccnc1` (centres undefined) reads 17.9%; that for `CC(CO)CNC(=O)c1cc2cccc(F)c2o1` (centres undefined), -9.63%.
The result for `CCN(CC)S(=O)(=O)CCNC(=O)c1cc2cccc(F)c2o1` reads -1.2%; that for `CCc1nsc(N2CCCN(C(=O)c3ccsc3)CC2)n1`, 14%.
For `CCc1nsc(N2CCCN(C(=O)c3ccc(CC)o3)CC2)n1`, the cytotoxicity at 70.5 h is -11%.
The result for `CCc1nsc(N2CCCN(C(=O)c3ccc(OC)cc3)CC2)n1` reads -10.9%.
With `CCOC(=O)C(CO)NC(=O)CCc1cccc(OC2CCCC2)c1` (centres undefined) the figure was -3.2%.
Take `Cc1nc(NC(=O)CCOCC(F)(F)F)ccc1Br`: the cytotoxicity at 70.5 h amounted to 2.27%.
With `CC(NC(=O)c1cccnc1N(C)C)c1ccccc1Cl` (centres undefined) the figure was -9.9%; with `CCC(NCc1ccccc1C)c1ccccc1OCC(=O)NC` (centres undefined), 25.2%.
On to `O=C1OCCN1c1cccc(CNS(=O)(=O)Cc2ccc(F)cc2)c1`, for which the cytotoxicity at 70.5 h was -6.39%.
With `CC(C)N(C)C(=O)c1ccc(CNc2ncc(C#N)cc2Cl)cc1` the figure was 18.7%; with `Cc1cc(C)c(CCNC(=O)NCCCC(N)=O)c(C)c1`, -1.98%.
As for `CC(NC(=O)CCc1cccc(OC2CCCC2)c1)c1nncn1C` (centres undefined), the cytotoxicity at 70.5 h amounted to 2.36%.
The result for `COCC1CCN(CCCc2cn[nH]c2)CC1` reads 19.8%; that for `CC1CCN(S(=O)(=O)c2cccnc2)c2ccccc2S1` (centres undefined), -3.73%; that for `CCNC(=O)C1CCCN(Cn2nc(C(C)(C)C)ccc2=O)C1` (centres undefined), 21.4%.
In the case of `CC(C)(C)c1ccc(=O)n(CN2CCCC(C(F)(F)F)C2)n1` (centres undefined), the cytotoxicity at 70.5 h is -7.29%.
The result for `CCC(CNS(C)(=O)=O)Oc1ccccc1F` (centres undefined) reads -6.95%; that for `Cn1cc(CNCCC(=O)NCc2ccccc2)c(-c2cccnc2)n1`, 2.26%; that for `Cn1cc(CNCC2(O)CCCCC2)c(-c2cccnc2)n1`, -4.88%.
The result for `CCC(NCc1ccccn1)c1ccccc1OCC(=O)NC` (centres undefined) reads -3.93%; that for `CC(C)N(Cc1ccc(Cl)c(Cl)c1)C(=O)Cn1cncn1`, 1.18%.
The result for `Cc1cccn2cc(CNCc3cccc4c3OCCCO4)nc12` reads 8.14%; that for `O=c1n(CCSCCOc2ccc(Br)cc2)nc2ccccn12`, -10.7%.
For the compound `Cc1cc(C(=O)CN2CCN(c3cnccn3)CC2)c(C)n1C(C)C`, the cytotoxicity at 70.5 h is -10.7%.
With `O=C(c1cccnc1O)N(CCO)Cc1cc(Br)ccc1F` the figure was -9.73%.
With `NC(=O)C1CCN(C(=O)c2ccc(Sc3ccccn3)cc2)CC1`, the cytotoxicity at 70.5 h was -2.31%.
The result for `CC(=O)NCC1CCN(C(=O)c2ccc(Sc3ccccn3)cc2)CC1` reads -16.7%.
With `CC(=O)N1CCN(C(=O)c2ccc(Sc3ccccn3)cc2)CC1` the figure was -14%; with `Cc1cccc(OCCSCCn2nc3ccccn3c2=O)c1`, -11%.
Turning to `Cc1cc(OC(F)F)c(C(=O)N2CCN(C3CC3)CC2)s1`, the cytotoxicity at 70.5 h is -8.34%.
With `COCCC(Cc1cccc(Br)c1)C(=O)N(C)C` (centres undefined) the figure was -0.534%; with `COCCC(Cc1cccc(Br)c1)C(=O)NCC(N)=O` (centres undefined), -9.6%.
With `Cc1nn(C)c(C)c1Cc1nc(N(C)C)no1` the figure was -0.362%; with `COC(=O)CN(C(=O)c1cc(C(C)C)no1)c1cccc(F)c1`, -8.3%.
With `Cc1noc2ncc(S(=O)(=O)N3CCCC(C)(C)CC3)cc12` the figure was -2.62%; with `COc1cc(NC(=O)N2CCCC2c2nncn2C)ccc1Br` (centres undefined), -4.18%.
Turning to `CC(C)CC(CO)NC(=O)NCc1csc(N(C)C)n1` (centres undefined), the cytotoxicity at 70.5 h came out at 0.865%.
With `CCOCc1ccc(NC(=O)N2CCCC2c2nncn2C)cc1` (centres undefined) the figure was -6.88%; with `COc1ccc(Cn2nnnc2SCC2CCCN(C)C2)cc1` (centres undefined), -8.49%.
With `Cc1cc(OC(F)F)c(C(=O)N2CCC(CN(C)C)CC2)s1` the figure was -5.68%; with `COCCC(Cc1cccc(Br)c1)C(=O)O` (centres undefined), -5.16%.
With `COCc1noc(Cc2c(C)nn(C)c2C)n1` the figure was -2.81%; with `O=C(NCCC(=O)N1CCCC1)c1ccc(SCc2cccnc2)cc1`, -8.9%.
As to `N#CCc1ccc(OCC(=O)NS(=O)(=O)c2cccs2)cc1`, the cytotoxicity at 70.5 h was 1.77%.
The result for `CC1CN(c2ccc(CNC(=O)NCc3ccoc3)cn2)CCO1` (centres undefined) reads -5.8%; that for `CC1CN(c2ccc(CNC(=O)NCCn3ccnc3)cn2)CCO1` (centres undefined), -16.7%; that for `O=C(NCCn1ccnc1)NCc1ccc(N2CCCCCC2)nc1`, -14.2%.
The result for `CCc1sc(C(=O)Nc2cnn(CC(N)=O)c2)cc1C` reads 14.8%; that for `CN(C)C(=O)c1ccc(CNc2c(Cl)cccc2C#N)cc1`, 3.41%.
With `Cn1cc(C(C)(O)CNc2ccc(C(F)(F)F)cn2)cn1` (centres undefined) the figure was -1.94%; with `O=C(CN1CCCC(c2ccn[nH]2)C1)Nc1nncs1` (centres undefined), 1.3%; with `CN(C(=O)C(c1c(F)cccc1Cl)N(C)C)c1nccs1` (centres undefined), 3.15%.
With `Cc1cc(CNc2ccnn2C)ccc1-n1cncn1`, the cytotoxicity at 70.5 h is -1.29%.
The result for `CCc1cc(NCc2ccc(-n3cncn3)c(C)c2)n(C)n1` reads 2.61%; that for `CC(=O)Nc1sccc1C(=O)C(C)(C)C`, 16.1%; that for `CNC(=O)COc1ccc(CNc2c(Cl)cccc2C#N)cc1`, -2.72%.
`COc1ccnc(NC(=O)CSCc2cccnc2)c1`: the cytotoxicity at 70.5 h was -1.54%.
As for `Cc1ncsc1C(=O)N(C)Cc1ccc(Br)o1`, the cytotoxicity at 70.5 h was 20.1%.
The result for `O=C(NCCc1ccccc1)N1CCCCC1C1OCCO1` (centres undefined) reads -1.28%; that for `COCCCNC(=O)C(C)(C)N(C)C1CCCC1`, -0.184%; that for `O=C(CN1CCCC(c2ccn[nH]2)C1)Nc1nc2c(s1)CCC2` (centres undefined), -2.76%.
With `Cc1ccc2cc(C(=O)N3CCCN(C)CC3)ccc2n1` the figure was -2.19%; with `CC(CS(C)(=O)=O)NCc1cc(Cl)ccc1F` (centres undefined), 19.9%.
The result for `CC(C)N(CC(N)=O)CC(=O)N(C1=CCCCC1)C1CC1` reads 3.33%; that for `CC1CCCN1C1CCN(C(=O)c2cccc(F)c2)CC1` (centres undefined), 6.94%.
In the case of `COc1ccc(Cc2nnc3n2N=C(C(C)(C)C)CS3)cc1`, the cytotoxicity at 70.5 h amounted to 8.14%.
With `c1ccc2[nH]c(C3CCN(Cc4nnc(C5CC5)o4)CC3)cc2c1` the figure was -12.6%.
With `CCCN(C)c1ccc(C(=O)NCc2ccnc(C)n2)cc1` the figure was -10%.
On to `Cc1ccc(NC(=O)CN2CCCNC2=O)c(SC(F)(F)F)c1`, for which the cytotoxicity at 70.5 h is -7.48%.
The result for `CCOc1ccc(C#N)cc1NC(=O)N1CCC(N2CCCC2)C1` (centres undefined) reads -9.59%; that for `CCCC1CCCN(C(=O)Nc2ccnc(C(=O)N(C)C)c2)CC1` (centres undefined), -6.22%.
With `Cc1ccc(C2CSCCN2CC(=O)N2CCOCC2)cc1` (centres undefined) the figure was -5.8%; with `Cc1nc2ncnn2c(C)c1CCC(=O)Nc1cccn(C)c1=O`, -15.3%.
With `Cc1nn(C)c(C)c1CCC(=O)Nc1cccn(C)c1=O` the figure was -3.26%; with `Cc1noc(C)c1CNS(=O)(=O)N(C)Cc1ccc(Cl)cc1`, -5.95%; with `CNC(=O)C(C)CN(C)C(=O)Nc1cc(-n2cccc2)ccc1F` (centres undefined), -3.24%.
As to `CN(CC(O)C1CC1)C(=O)Nc1ccc(F)c(-n2cccc2)c1` (centres undefined), the cytotoxicity at 70.5 h was -2.43%.
With `Cc1cc(CCC(=O)N2CC[C@H](O)C2)ccc1Br` the figure was 1.1%; with `CC(C#N)CN(C)C(=O)c1cn(-c2ccc(Br)cc2)cn1` (centres undefined), -1.57%; with `CNC(=O)C(C)CN(C)C(=O)Nc1ccc(F)c(-n2cccc2)c1` (centres undefined), 0.178%.
`Cc1noc(C)c1CNS(=O)(=O)N(C)Cc1ccccc1Br`: the cytotoxicity at 70.5 h is -9.08%.
For `Cc1ncsc1CN(C)C(=O)CC1CCOc2ccccc21` (centres undefined), the cytotoxicity at 70.5 h is 22.4%.
The result for `CC(NCc1cccc(S(=O)(=O)N(C)C)c1)c1cccnc1` (centres undefined) reads -3.39%.
With `O=C(CN1CCN(C(=O)c2cccc(-c3ccoc3)c2)CC1)C1CC1` the figure was -5.66%.
Regarding `N#Cc1ccc(CNCC2(c3ccccc3)CCOCC2)cc1`, the cytotoxicity at 70.5 h is -12%.

For the origin of these results see ChEMBL document CHEMBL3507680, “University of Dundee, Gates Library screen for HepG2 cell viability”.
